This is an account of results in PubChem BioAssay AID330 (DTP/NCI, 2004).

The assay concerns P388 leukemia ip, CD2F1 mice, survival T/C. Description: NCI In Vivo Anticancer Drug Screen. Data for tumor model P388 Leukemia (intraperitoneal) in CD2F1 (CDF1) mice. The conditions noted are these: endpoint: median survival time, higher = longer survival. The method, boiled down: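 Mice carrying the transplanted tumor received test compound or vehicle. Survival was recorded in each group, and the value is the treated-group measurement divided by that of the vehicle-treated control group.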

[1] abbreviates: dose: 100.0 mg/kg/injection, schedule: Q01DX001 (ip), vehicle: Klucel (hydroxypropylcellulose) (HPC).
Setting [2] is: dose: 6.25 mg/kg/injection, schedule: Q01DX009 (ip), vehicle: saline with Tween-80.
The mark [3] stands for this setting: dose: 12.5 mg/kg/injection, schedule: Q01DX009 (ip), vehicle: saline with Tween-80.
Setting [4] is: dose: 25.0 mg/kg/injection, schedule: Q01DX009 (ip), vehicle: saline with Tween-80.
Where [5] appears, read: dose: 50.0 mg/kg/injection, schedule: Q01DX009 (ip), vehicle: saline with Tween-80.
[6] abbreviates: dose: 100.0 mg/kg/injection, schedule: Q01DX009 (ip), vehicle: saline with Tween-80.
Setting [7] is: dose: 50.0 mg/kg/injection, schedule: Q01DX005 (ip), vehicle: Klucel (hydroxypropylcellulose) (HPC).
Where [8] appears, read: dose: 100.0 mg/kg/injection, schedule: Q01DX005 (ip), vehicle: Klucel (hydroxypropylcellulose) (HPC).
Setting [9] is: dose: 200.0 mg/kg/injection, schedule: Q01DX005 (ip), vehicle: Klucel (hydroxypropylcellulose) (HPC).
[10] abbreviates: dose: 15.0 mg/kg/injection, schedule: Q01DX005 (ip), vehicle: Klucel (hydroxypropylcellulose) (HPC).
The mark [11] stands for this setting: dose: 30.0 mg/kg/injection, schedule: Q01DX005 (ip), vehicle: Klucel (hydroxypropylcellulose) (HPC).
Setting [12] is: dose: 60.0 mg/kg/injection, schedule: Q01DX005 (ip), vehicle: Klucel (hydroxypropylcellulose) (HPC).
Setting [13] is: dose: 50.0 mg/kg/injection, schedule: Q01DX009 (ip), vehicle: Klucel (hydroxypropylcellulose) (HPC).
Where [14] appears, read: dose: 100.0 mg/kg/injection, schedule: Q01DX009 (ip), vehicle: Klucel (hydroxypropylcellulose) (HPC).
Setting [15] is: dose: 200.0 mg/kg/injection, schedule: Q01DX009 (ip), vehicle: Klucel (hydroxypropylcellulose) (HPC).

Several values for one entry are separate records, joined by “and”; a condition that tells them apart may be missing. Equal entries are not always repeated. Inconclusive results and toxic doses are left out.

As to `CCNC(=O)OCc1c(Cl)nc2n1CCS2`, the T/C is 103 % of control (dose: 25.0 mg/kg/injection, schedule: Q01DX001 (ip), vehicle: Klucel (hydroxypropylcellulose) (HPC)); 110 % of control (dose: 50.0 mg/kg/injection, schedule: Q01DX001 (ip), vehicle: Klucel (hydroxypropylcellulose) (HPC)); 105 % of control under setting [1].
As for `O=[N+]([O-])c1ccccc1-c1ccccc1N=Cc1ccccc1`, the T/C runs as follows: under setting [2], 96 % of control; under setting [3], 106 % of control; under setting [4], 86 % of control.
On to `CSCc1cc(Cl)cc2c1OCOC2`, for which the T/C by setting is: under setting [5], 102 % of control; under setting [6], 96 % of control; (dose: 200.0 mg/kg/injection, schedule: Q01DX009 (ip), vehicle: saline with Tween-80) 100 % of control.
Take `COc1cc2c(cc1OC)C1CC3(CCN1CC2)CC(=O)OC3=O` (configuration not stated): the T/C runs as follows: (dose: 50.0 mg/kg/injection, schedule: Q01DX005 (ip), vehicle: DMSO) 108 % of control; (dose: 100.0 mg/kg/injection, schedule: Q01DX005 (ip), vehicle: DMSO) 120 % of control; (dose: 200.0 mg/kg/injection, schedule: Q01DX005 (ip), vehicle: DMSO) 119 % of control.
On to `COC(=O)C1=NC(c2ccccc2)(c2ccccc2)C(C(=O)OC)=C(C(=O)OC)P(c2ccccc2)(c2ccccc2)=C1C(=O)OC`, for which the T/C reads like this: under setting [7], 88 % of control; under setting [8], 92 % of control; under setting [9], 110 % of control.
For `COC1=C(OC)C(=O)C(COC2CCCCO2)=CC1=O` (configuration not stated), the T/C by setting is: (dose: 7.5 mg/kg/injection, schedule: Q01DX005 (ip), vehicle: saline with Tween-80) 98 % of control; (dose: 15.0 mg/kg/injection, schedule: Q01DX005 (ip), vehicle: saline with Tween-80) 103 % of control.
In the case of `CNc1cc(C)c2ccc(N(C)C)cc2n1`, the T/C reads like this: (dose: 7.5 mg/kg/injection, schedule: Q01DX005 (ip), vehicle: Klucel (hydroxypropylcellulose) (HPC)) 98 % of control; under setting [10], 102 % of control; under setting [11], 101 % of control; under setting [12], 93 % of control.
For `CN(C)c1ccc2c(Cl)ccnc2c1`, the T/C is 100 % of control (dose: 12.5 mg/kg/injection, schedule: Q01DX005 (ip), vehicle: saline with Tween-80); 103 % of control (dose: 25.0 mg/kg/injection, schedule: Q01DX005 (ip), vehicle: saline with Tween-80); 103 % of control and 86 % of control (dose: 50.0 mg/kg/injection, schedule: Q01DX005 (ip), vehicle: saline with Tween-80).
For `COc1c2c(c(O)c3c4c(c(C)cc13)C1OC3(C(OC)OC5CC(C)(O)C(OC6CC(C)(O)C(O)C(C)O6)C(C)O5)OC1C(OC)(O4)C31CO1)C(=O)C(O)CC2OC1CC(C)(O)C(OC(C)=O)C(C)O1` (configuration not stated), the T/C by setting is: (dose: 0.06 mg/kg/injection, schedule: Q01DX005 (ip), vehicle: saline) 158 % of control; (dose: 0.13 mg/kg/injection, schedule: Q01DX005 (ip), vehicle: saline) 155 % of control and 166 % of control.
Turning to `C=CCNC(=S)Nc1ccc(OC(=O)Nc2ccc(Cl)c(Cl)c2)cc1`, the T/C by setting is: under setting [2], 102 % of control; under setting [3], 96 % of control; under setting [4], 104 % of control; under setting [5], 98 % of control.
For the compound `CCSc1nsc(NC(C)=O)n1`, the T/C reads like this: under setting [1], 104 % of control; (dose: 200.0 mg/kg/injection, schedule: Q01DX001 (ip), vehicle: Klucel (hydroxypropylcellulose) (HPC)) 96 % of control; (dose: 400.0 mg/kg/injection, schedule: Q01DX001 (ip), vehicle: Klucel (hydroxypropylcellulose) (HPC)) 102 % of control.
In the case of `Cc1ccc(N2OC3(CCCCC3)n3c(=O)c4ccccc4c(=O)n3C2c2ccccc2)cc1` (configuration not stated), the T/C by setting is: under setting [13], 105 % of control; under setting [14], 106 % of control; under setting [15], 99 % of control.
As for `COc1ccc(CSC(=S)Nc2ccc(SC)c(Cl)c2)cc1`, the T/C is, setting by setting: (dose: 50.0 mg/kg/injection, schedule: Q01DX009 (ip), vehicle: suspension in saline) 100 % of control; (dose: 100.0 mg/kg/injection, schedule: Q01DX009 (ip), vehicle: suspension in saline) 108 % of control; (dose: 200.0 mg/kg/injection, schedule: Q01DX009 (ip), vehicle: suspension in saline) 98 % of control.
On to `C=CCC(CCCCCCCCCCCCC)C(=O)O` (configuration not stated), for which the T/C by setting is: (dose: 100.0 mg/kg/injection, schedule: Q01DX001 (ip), vehicle: saline with Tween-80) 104 % of control; (dose: 200.0 mg/kg/injection, schedule: Q01DX001 (ip), vehicle: saline with Tween-80) 95 % of control; (dose: 400.0 mg/kg/injection, schedule: Q01DX001 (ip), vehicle: saline with Tween-80) 91 % of control.
As for `Cc1ccc(OP(=O)(Oc2ccc(C)cc2)Oc2ccc(C)cc2)cc1.Cc1ccc(OP(=O)(Oc2ccc(C)cc2)Oc2ccc(C)cc2)cc1.Cc1ccc(OP(=O)(Oc2ccc(C)cc2)Oc2ccc(C)cc2)cc1.Cc1ccc(OP(=O)(Oc2ccc(C)cc2)Oc2cccc(C)c2)cc1.[Cd+2].[O-][Cl+3]([O-])([O-])O`, the T/C (dose: 12.5 mg/kg/injection, schedule: Q01DX009 (ip), vehicle: Klucel (hydroxypropylcellulose) (HPC)) was 95 % of control; the T/C (dose: 25.0 mg/kg/injection, schedule: Q01DX009 (ip), vehicle: Klucel (hydroxypropylcellulose) (HPC)) is 96 % of control; the T/C under setting [13] was 93 % of control and 96 % of control.
In the case of `CC(C)(C)C(=O)Nc1ccccc1-c1ccccc1`, the T/C (dose: 100.0 mg/kg/injection, schedule: Q04DX003 (ip), vehicle: saline) is 93 % of control; the T/C (dose: 200.0 mg/kg/injection, schedule: Q04DX003 (ip), vehicle: saline) is 92 % of control; the T/C (dose: 400.0 mg/kg/injection, schedule: Q04DX003 (ip), vehicle: saline) is 94 % of control.
As to `CC(=O)OC1C(Br)C2CC1C1(Cl)C(=O)C(Cl)=C(Cl)C(=O)C21Cl` (configuration not stated), the T/C reads like this: (dose: 50.0 mg/kg/injection, schedule: Q01DX009 (ip), vehicle: saline) 99 % of control; (dose: 100.0 mg/kg/injection, schedule: Q01DX009 (ip), vehicle: saline) 101 % of control; (dose: 200.0 mg/kg/injection, schedule: Q01DX009 (ip), vehicle: saline) 99 % of control.
As for `CCCCCCCCCCCCCCCC(O)S(=O)(=O)O` (configuration not stated), the T/C is 100 % of control under setting [4], 100 % of control under setting [5] and 100 % of control under setting [6].
As for `Cc1ccc(N2C(=O)CC3(CCCC3)C2=O)cc1Cl`, the T/C is 104 % of control under setting [13], 108 % of control under setting [14] and 105 % of control under setting [15].
As to `Cc1cc(=O)c2c(C)nn(-c3ccccc3)c2[nH]1`, the T/C runs as follows: under setting [10], 98 % of control; under setting [11], 100 % of control; under setting [12], 94 % of control; (dose: 240.0 mg/kg/injection, schedule: Q01DX005 (ip), vehicle: Klucel (hydroxypropylcellulose) (HPC)) 93 % of control.
Take `O=[N+]([O-])c1cc2c(ccc3ccccc32)o1`: the T/C is, setting by setting: under setting [7], 102 % of control; under setting [8], 103 % of control; under setting [9], 117 % of control.
Take `CC(=O)SCC1C(=O)CC(C)(C)CC1=O`: the T/C (dose: 200.0 mg/kg/injection, schedule: Q04DX003 (ip), vehicle: Klucel (hydroxypropylcellulose) (HPC)) is 89 % of control.
Consider `OCc1ccc(O)c(O)c1`, for which the T/C is, setting by setting: (dose: 50.0 mg/kg/injection, schedule: Q01DX005 (ip), vehicle: saline) 116 % of control; (dose: 100.0 mg/kg/injection, schedule: Q01DX005 (ip), vehicle: saline) 123 % of control; (dose: 200.0 mg/kg/injection, schedule: Q01DX005 (ip), vehicle: saline) 123 % of control; (dose: 400.0 mg/kg/injection, schedule: Q01DX005 (ip), vehicle: saline) 120 % of control.
Regarding `CC(=O)OC1CC2(C)CCC3C(C)C(=O)OC3C2C(C)C1=O` (configuration not stated), the T/C was 100 % of control (dose: 100.0 mg/kg/injection, schedule: Q04DX002 (ip), vehicle: saline with Tween-80); 100 % of control (dose: 200.0 mg/kg/injection, schedule: Q04DX002 (ip), vehicle: saline with Tween-80); 99 % of control and 100 % of control (dose: 400.0 mg/kg/injection, schedule: Q04DX002 (ip), vehicle: saline with Tween-80).
